Results: patent US20250099411A1, “Methods of Treatment of Inflammation Related Conditions Using Pluripotent Anti-Inflammatory and Metabolic Modulators” (Institut Pasteur de Montevideo, priority 2018, published 2025)

Legend:
[1] = system: Nrf2/Keap I-dependent gene expression; experiment: Nrf2/Keap I-dependent phase two enzyme gene expression (HO-I, GCLM, NQO I qPCR) in Hep G2 cells; format: cell-based; details: Hep G2, five hours, SANA 0.1 mM, Salicylic Acid 0.2 and 5 mM
Protocol: FIGS. 6 and 7 show induction of phase two enzymes Nrf2/Keap I-dependent gene expression by SANA but not by SA Hep G2 cells were treated with SANA (0.1 mM) or Salicylic Acid (0.2 and 5 mM) for five hours. mRNA was extracted from the cells and was measured HO-I, GCLM and NQO I gene expression by qPCR.

inflammasome = experiment: Inflammasome inhibition (IL-lb ELISA) in THP-1 cells differentiated into macrophages, LPS then ATP; format: cell-based, human; details: for inhibition of the inflammasome (IL-lb), applied with the second signal: together with ATP (5 mM, 45 minutes) after LPS, SANA 0.05-0.25 mM, SA 0.25 mM; for inhibition of the inflammasome (IL-lb), applied with the first signal: together with LPS (250 ng/ml, 3 hs.), then ATP 5 mM 45 minutes, SANA 0.05-0.25, SA 0.25 mM
Protocol: In FIGS. 8 and 9 show the inhibition of inflammasome in THP-1 cells differentiated into macrophages (PMA 200 nM, 48 hs.) by SANA but not by SA when applied together with the first (FIG. 8) or the second (FIG. 9) signal. In FIG. 8 cells were treated with Salicylic acid (0.25 mM) or SANA (0.05; 0.125 and 0.25) together with LPS stimulation. The cells were stimulated with LPS (250 ng/ml, 3 hs.) and then with ATP (5 mM, 45 minutes). Supernatant was collected and IL-lb measured by ELISA Cell viability was assessed by MTT assay. […] In FIG. 9 THP-1 cells were differentiated into macrophages with PMA (200 nM, 48 hs.). Cells were stimulated with LPS (250 ng/ml, 3 hs.) and then with ATP (5 mM, 45 minutes). Together with ATP treatment, cells were then treated with NAT×ME (10 uM), Salicylic acid (0.25 mM) or SANA (0.05; 0.125 and 0.25 mM). Supernatant was collected and IL-lb secretion was measured by ELISA Cell viability was assessed by the MTT assay.

[2] = Stopped-flow kinetics of the reaction with BME; format: physicochemical; details: 25° C., triplicate, BME 0.54-2.73 mM, absorbance at 260 nm
Protocol: In FIG. 2, it is shown that the reaction between SANA and BME was determined to be a second order rate constant. Stopped-flow kinetic measurements were performed using an Rx 2000 stopped flow analyzer (Applied Photophysics). Mixtures of 150 μL NATx0 (25 μM) and solutions of BME at 0.54 mM, 1.09 mM, 1.64 mM, 2.18 mM, and 2.73 mM concentrations.
The reaction was monitored by following the absorbance at 260 nm and plots were fitted to a simple exponential decay function using Originlab software (version 8.0.). The observed pseudo first order constant at each concentration of BME was extracted from the equation and plotted against the concentration of BME. The second rate constant of the reaction is derived from the slope of the curve and was 182±6 M·^1s·^1. All experiments were carried out at 25° C. by triplicate.

11-lb secretion = experiment: LPS-induced 11-lb secretion into the peritoneum in vivo
[3] = Glucose tolerance test in HFD obese mice; format: in vivo; details: mice under HFD up to 7 months, 100 mg/kg gavage every day during four weeks
Protocol: Mice under HFD for up to 7 months (mean weight around 40 gr.) were treated with SANA (100 mg/kg; gavage) or phosphate buffer (control) every day during four weeks. The glucose tolerance test were run as per well-known standard procedures.

GAPDH = GAPDH (Homo sapiens, UniProt P04406); experiment: GAPDH activity; format: biochemical
[4] = Skin allograft rejection, male tail skin grafted onto female mice; format: in vivo, C57BL/6 mice; details: 100 mg/kg oral gavage daily, day -1 to day 15
Protocol: C57BL/6 female mice were grafted with skin from the tails of C57BL/6 male mice. The skin graft is a small'square (1 cm^2 and it was implanted onto the left subscapular region of the female mice. From one day before the transplantation until 15 days after it, the mice were treated daily with SANA (100 mg/kg, by oral gavage; SANA group) or vehicle (Control group). The vehicle used was a solution of Carboxy-Methyl-cellulose 0.5% m/v and Tween 80 0.5% v/v. At the end of the 15th day of administration, allografts were checked every 48/72 hours to assess the condition of the grafted skin. Rejection was diagnosed clinically when the allograft lost more than 50% of its size and/or more than I 0% of allograft was necrotic.
The study followed the protocol described above for FIG. I, but further included a Salicylate group. C57BL/6 female mice were grafted with skin from the tails of C57BL/6 male mice. The skin graft is a small square (1 cm^2 and it was implanted onto the left subscapular region of the female mice. From one day before the transplantation until 15 days after it, the mice were treated daily with Salicylate (100 mg/kg, by oral gavage; Salicylate group), SANA (100 mg/kg, by oral gavage; SANA group) or vehicle (Control group). The vehicle used was a solution of
Carboxy-Methyl-cellulose 0.5% m/v and Tween 80 0.5% v/v. […]

[5] = Body weight of mice fed a high-fat diet; format: in vivo
From the text: (§1) While not wishing to be bound by theory, thermogenesis and weight loss are a result of AMPK activation together with white adipose tissue and mitochondrial uncoupling. […] SANA's beneficial effects also include reducing adverse effects related to obesity. […] FIGS. 22 and 23, compare the body temperatures of mice on normal diets (“ND”), HFD, and HFD with administration of SANA.

[6] = Magnetic resonance imaging (MRI) of fat content; format: in vivo; details: mice
From the text: as §1

[7] = Thermogenesis / body temperature of mice on HFD; format: in vivo
From the text: as §1

[8] = Thermogenesis and weight loss in mice on a normal diet; format: in vivo
From the text: as §1

GAPDH, sequence (P04406 whole entry, species assumed): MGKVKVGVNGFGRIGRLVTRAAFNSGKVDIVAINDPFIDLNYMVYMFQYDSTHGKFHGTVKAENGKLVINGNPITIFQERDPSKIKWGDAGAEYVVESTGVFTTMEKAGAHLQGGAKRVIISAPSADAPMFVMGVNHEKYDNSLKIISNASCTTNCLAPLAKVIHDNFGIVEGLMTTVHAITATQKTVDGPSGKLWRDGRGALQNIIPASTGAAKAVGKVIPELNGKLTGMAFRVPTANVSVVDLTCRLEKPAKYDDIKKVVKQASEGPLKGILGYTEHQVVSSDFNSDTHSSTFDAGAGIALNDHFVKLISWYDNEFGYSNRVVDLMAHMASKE

| SMILES | induction of phase two enzymes Nrf2/Keap I-dependent gene expression [1] | inhibition of the inflammasome (IL-lb), applied with the second signal (inflammasome) | inhibition of the inflammasome (IL-lb), applied with the first signal (inflammasome) | second rate constant of the reaction with BME [2] [M·^1s·^1] | LPS-induced 11-lb secretion into the peritoneum (11-lb secretion) | insulin resistance (glucose tolerance test) [3] | GAPDH activity (GAPDH) | skin allograft rejection compared to salicylic acid [4] | survival of grafted skin versus control group [4] | rate of weight gain ([5]; mice fed high-fat diet, 29 weeks) | dose dependence of the effect on obesity ([5]; mouse, in vivo) | fat content (MRI) [6] | body temperature ([7]; HFD with SANA versus ND mice and HFD mice) | thermogenesis ([7]; mouse, in vivo) | thermogenesis [8] | weight loss [8] |
| --- | --- | --- | --- | --- | --- | --- | --- | --- | --- | --- | --- | --- | --- | --- | --- | --- |
| O=C(O)c1ccccc1O [SA, salicylic acid, reference compound] | not by SA | cannot inhibit | cannot inhibit |  |  |  |  |  |  |  |  |  |  |  |  |  |
| O=C(O)c1cc(/C=C/[N+](=O)[O-])ccc1O [SANA, 2-hydroxy-5-(2-nitroethenyl)benzoic acid] | induction | potent inhibitor | potent inhibitor | 182±6 | decreases | reverses insulin resistance | does not inhibit | significant reduction in skin allograft rejection | prolonged survival of grafted skin | reduced the rate of weight gain | dose response effect | induces loss of fat content | higher body temperatures than that of ND mice and HFD mice | inducing thermogenesis | does not induce | does not induce |
